# From ChEMBL document CHEMBL4346695, “Thiophenol-formaldehyde triazole causes apoptosis induction in ovary cancer cells and prevents tumor growth formation in mice model” (2019)
# The source made the active and inactive calls. The rule behind the calls is not given here.
# Experiments:
# Caov-4 [1] = test: Growth inhibition of human Caov4 cells at 2 uM incubated for 48 hrs by MTT assay relative to control; format: functional; settings: Caov-4, 48 h, read-out: GI
# Caov-3 cell line [2] = test: Antitumor activity against human Caov3 cells xenografted in BALB/c nude mouse assessed as tumor size at 10 mg/kg, ip incubated for 1 hr post tumor implantation and measured after 20 days (reference value: 1956 +/- 367 mm3); format: functional
# Homo sapiens [3] = organism: Homo sapiens; test: Growth inhibition of human ES2 cells incubated for 48 hrs by MTT assay; format: functional
# Caov-3 cell line [4] = test: Antimetastasis activity against human Caov3 cells xenografted in BALB/c nude mouse assessed as reduction in infiltration of macrophages in intestinal lesions at 10 mg/kg, ip incubated for 1 hr post tumor implantation and measured after 20 days by DAB and hematoxylin staining based immunohistochemical analysis relative to control; format: functional; design: scale not given: the % may be the effect or the level left
# Caov-3 cell line [5] = test: Antitumor activity against human Caov3 cells xenografted in BALB/c nude mouse assessed as tumor size at 5 mg/kg, ip incubated for 1 hr post tumor implantation and measured after 20 days (reference value: 1956 +/- 367 mm3); format: functional
# Caov-3 cell line [6] = test: Antimetastasis activity against human Caov3 cells xenografted in BALB/c nude mouse assessed as reduction of metastasis in intestine at 10 mg/kg, ip incubated for 1 hr post tumor implantation and measured after 20 days by H and E staining-based assay; format: functional, organism-based
# Caov-3 cell line [7] = test: Antiinvasive activity in human Caov3 cells at 2.0 uM incubated for 48 hrs using hematoxylin by microscopy-based transwell assay relative to control; format: functional
# Caov-3 cell line [8] = test: Antimetastasis activity against human Caov3 cells xenografted in BALB/c nude mouse assessed as reduction in vWF expression in intestinal lesions at 10 mg/kg, ip incubated for 1 hr post tumor implantation and measured after 20 days by DAB and hematoxylin staining based immunohistochemical analysis relative to control; format: functional; design: scale not given: the % may be the effect or the level left
# Caov-3 cell line [9] = test: Antimetastasis activity against human Caov3 cells xenografted in BALB/c nude mouse assessed as reduction in infiltration of macrophages in lungs lesions at 5 mg/kg, ip incubated for 1 hr post tumor implantation and measured after 20 days by DAB and hematoxylin staining based immunohistochemical analysis; format: functional, organism-based
# Caov-3 cell line [10] = test: Antimetastasis activity against human Caov3 cells xenografted in BALB/c nude mouse assessed as reduction in infiltration of macrophages in peritoneal lesions at 10 mg/kg, ip incubated for 1 hr post tumor implantation and measured after 20 days by DAB and hematoxylin staining based immunohistochemical analysis relative to control; format: functional; design: scale not given: the % may be the effect or the level left
# Caov-3 cell line [11] = test: Induction of Cell cycle arrest in human Caov3 cells assessed as accumulation at G0/G1 phase at 2 uM incubated for 48 hrs by propidium iodide staining based flow cytometric analysis (reference value: 57.77%); format: functional
# Caov-3 cell line [12] = test: Growth inhibition of human Caov3 cells at 0.25 uM incubated for 48 hrs by MTT assay; format: functional, cell-based
# Caov-3 cell line [13] = test: Induction of apoptosis in human Caov3 cells assessed as formation of apoptotic nuclei at 2.0 uM incubated for 48 hrs by Hoechst 33342 staining based fluorescent microscopic method relative to control; format: functional
# Caov-3 cell line [14] = test: Induction of Cell cycle arrest in human Caov3 cells assessed as accumulation at G2/M phase at 1 uM incubated for 48 hrs by propidium iodide staining based flow cytometric analysis (reference value: 22.68%); format: functional
# Caov-3 cell line [15] = test: Induction of apoptosis in human Caov3 cells assessed as formation of apoptotic nuclei at 1.5 uM incubated for 48 hrs by Hoechst 33342 staining based fluorescent microscopic method relative to control; format: functional
# Caov-3 cell line [16] = test: Inhibition of metastasis in human Caov3 cells assessed as decrease in MMP9 expression level at 0.25 uM incubated for 48 hrs by Western blot analysis; format: functional, cell-based
# Caov-3 cell line [17] = test: Induction of Cell cycle arrest in human Caov3 cells assessed as accumulation at S phase at 2 uM incubated for 48 hrs by propidium iodide staining based flow cytometric analysis (reference value: 18.89%); format: functional
# Caov-4 [18] = test: Growth inhibition of human Caov4 cells at 0.5 uM incubated for 48 hrs by MTT assay; format: functional, cell-based
# Caov-3 cell line [19] = test: Induction of apoptosis in human Caov3 cells assessed as formation of apoptotic nuclei at 2.0 uM incubated for 48 hrs by Hoechst 33342 staining based fluorescent microscopic method; format: functional, cell-based
# Caov-3 cell line [20] = test: Antimetastasis activity against human Caov3 cells xenografted in BALB/c nude mouse assessed as reduction of metastasis in liver at 10 mg/kg, ip incubated for 1 hr post tumor implantation and measured after 20 days by H and E staining-based assay; format: functional, organism-based
# Caov-3 cell line [21] = test: Antimetastasis activity against human Caov3 cells xenografted in BALB/c nude mouse assessed as reduction in infiltration of macrophages in lungs lesions at 10 mg/kg, ip incubated for 1 hr post tumor implantation and measured after 20 days by DAB and hematoxylin staining based immunohistochemical analysis relative to control; format: functional; design: scale not given: the % may be the effect or the level left
# Caov-3 cell line [22] = test: Induction of Cell cycle arrest in human Caov3 cells assessed as accumulation at S phase at 1 uM incubated for 48 hrs by propidium iodide staining based flow cytometric analysis (reference value: 18.89%); format: functional
# [23] = Growth inhibition of human ES2 cells at 2 uM incubated for 48 hrs by MTT assay relative to control; format: functional; settings: ES-2, 48 h, read-out: GI
# Caov-3 cell line [24] = test: Inhibition of metastasis in human Caov3 cells assessed as decrease in MMP2 expression level at 0.5 uM incubated for 48 hrs by Western blot analysis; format: functional, cell-based
# Caov-3 cell line [25] = test: Induction of apoptosis in human Caov3 cells at 0.25 to 2.0 uM incubated for 48 hrs by Hoechst 33342 staining based fluorescent microscopic method; format: functional, cell-based
# Caov-3 cell line [26] = test: Antimetastasis activity against human Caov3 cells xenografted in BALB/c nude mouse assessed as reduction in infiltration of macrophages in intestinal lesions at 5 mg/kg, ip incubated for 1 hr post tumor implantation and measured after 20 days by DAB and hematoxylin staining based immunohistochemical analysis; format: functional, organism-based
# Caov-3 cell line [27] = test: Antimetastasis activity against human Caov3 cells xenografted in BALB/c nude mouse assessed as reduction in vWF expression in peritoneal lesions at 10 mg/kg, ip incubated for 1 hr post tumor implantation and measured after 20 days by DAB and hematoxylin staining based immunohistochemical analysis relative to control; format: functional; design: scale not given: the % may be the effect or the level left
# Caov-3 cell line [28] = test: Growth inhibition of human Caov3 cells incubated for 48 hrs by MTT assay; format: functional, cell-based
# Caov-3 cell line [29] = test: Antimetastasis activity against human Caov3 cells xenografted in BALB/c nude mouse assessed as reduction in infiltration of macrophages in peritoneal lesions at 5 mg/kg, ip incubated for 1 hr post tumor implantation and measured after 20 days by DAB and hematoxylin staining based immunohistochemical analysis; format: functional, organism-based
# Caov-3 cell line [30] = test: Antimetastasis activity against human Caov3 cells xenografted in BALB/c nude mouse assessed as reduction of metastasis in peritoneal cavity at 10 mg/kg, ip incubated for 1 hr post tumor implantation and measured after 20 days by H and E staining-based assay; format: functional, organism-based
# Homo sapiens [31] = organism: Homo sapiens; test: Growth inhibition of human ES2 cells at 0.5 uM incubated for 48 hrs by MTT assay; format: functional
# Caov-4 [32] = test: Growth inhibition of human Caov4 cells incubated for 48 hrs by MTT assay; format: functional, cell-based
# Caov-3 cell line [33] = test: Growth inhibition of human Caov3 cells at 0.5 uM incubated for 48 hrs by MTT assay; format: functional, cell-based
# Caov-3 cell line [34] = test: Inhibition of cell migration in human Caov3 cells assessed as decrease in migration potential at 0.5 to 2.0 uM incubated for 48 hrs by wound healing assay (reference value: 89.65%); format: functional
smiles,measurement,setting,value
Fc1ccccc1-n1cc(COCc2ccccc2S)nn1,inhibition of growth at 2 µM,Caov-4 [1],26%
same,Activity,Caov-3 cell line [2],213.34 mm3
same,growth inhibition (GI),Homo sapiens [3],Dose-dependent effect
same,Activity,Caov-3 cell line [4],7%
same,Activity,Caov-3 cell line [5],1258 mm3
same,Activity,Caov-3 cell line [6],Active
same,Activity,Caov-3 cell line [7],8.62%
same,Activity,Caov-3 cell line [8],6%
same,Activity,Caov-3 cell line [9],inactive
same,Activity,Caov-3 cell line [10],5%
same,Activity,Caov-3 cell line [11],69.54%
same,growth inhibition (GI),Caov-3 cell line [12],inactive
same,Activity,Caov-3 cell line [13],62.53%
same,Activity,Caov-3 cell line [14],21.19%
same,Activity,Caov-3 cell line [15],45.89%
same,inhibition,Caov-3 cell line [16],inactive
same,Activity,Caov-3 cell line [17],11.48%
same,growth inhibition (GI),Caov-4 [18],Active
same,Activity,Caov-3 cell line [19],Active
same,Activity,Caov-3 cell line [20],Active
same,Activity,Caov-3 cell line [21],9%
same,Activity,Caov-3 cell line [22],16.23%
same,inhibition of growth at 2 µM,[23],29%
same,inhibition,Caov-3 cell line [24],Active
same,Activity,Caov-3 cell line [25],Active
same,Activity,Caov-3 cell line [26],inactive
same,Activity,Caov-3 cell line [27],5%
same,growth inhibition (GI),Caov-3 cell line [28],Dose-dependent effect
same,Activity,Caov-3 cell line [29],inactive
same,Activity,Caov-3 cell line [30],Active
same,growth inhibition (GI),Homo sapiens [31],Active
same,growth inhibition (GI),Caov-4 [32],Dose-dependent effect
same,growth inhibition (GI),Caov-3 cell line [33],Active
same,inhibition (INH),Caov-3 cell line [34],6.43%
